The source of these data is PubChem BioAssay AID248 (DTP/NCI, 2004).

Molecules are shown by their SMILES. Several values for one entry are separate records, joined by “and”; a condition that tells them apart may be missing. Equal entries are not always repeated. Inconclusive results and toxic doses are left out.

For this assay, the system named is L1210 leukemia ip in BDF1 mice, survival T/C. Briefly: NCI In Vivo Anticancer Drug Screen. Data for tumor model L1210 Leukemia (intraperitoneal) in B6D2F1 (BDF1) mice. The note with it: endpoint: mean survival time, higher = longer survival. In short, it runs like this:
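Transplanted-tumor mice were given test agent; controls received vehicle only. Survival readings from the two groups were divided (treated over control).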

Setting [1] is: dose: 100.0 mg/kg/injection, schedule: Q04DX003 (ip), vehicle: carboxymethylcellulose (CMC).
Where [2] appears, read: dose: 200.0 mg/kg/injection, schedule: Q04DX003 (ip), vehicle: carboxymethylcellulose (CMC).
Where [3] appears, read: dose: 400.0 mg/kg/injection, schedule: Q04DX003 (ip), vehicle: carboxymethylcellulose (CMC).
Where [4] appears, read: dose: 100.0 mg/kg/injection, schedule: Q04DX003 (ip), vehicle: saline.
Where [5] appears, read: dose: 200.0 mg/kg/injection, schedule: Q04DX003 (ip), vehicle: saline.
The mark [6] stands for this setting: dose: 400.0 mg/kg/injection, schedule: Q04DX003 (ip), vehicle: saline.
Where [7] appears, read: dose: 100.0 mg/kg/injection, schedule: Q01DX001 (ip), vehicle: saline.
The mark [8] stands for this setting: dose: 200.0 mg/kg/injection, schedule: Q01DX001 (ip), vehicle: saline.
Where [9] appears, read: dose: 400.0 mg/kg/injection, schedule: Q01DX001 (ip), vehicle: saline.
Setting [10] is: dose: 100.0 mg/kg/injection, schedule: Q01DX009 (ip), vehicle: saline.
The mark [11] stands for this setting: dose: 200.0 mg/kg/injection, schedule: Q01DX009 (ip), vehicle: saline.
[12] abbreviates: dose: 400.0 mg/kg/injection, schedule: Q01DX009 (ip), vehicle: saline.
[13] abbreviates: dose: 100.0 mg/kg/injection, schedule: Q04DX003 (ip), vehicle: saline with Tween-80.
[14] abbreviates: dose: 200.0 mg/kg/injection, schedule: Q04DX003 (ip), vehicle: saline with Tween-80.
Setting [15] is: dose: 400.0 mg/kg/injection, schedule: Q04DX003 (ip), vehicle: saline with Tween-80.

As to `Cc1ccc(C(=O)NO)cc1`, the T/C is, setting by setting: under setting [1], 98 % of control; under setting [2], 90 % of control; under setting [3], 98 % of control.

In the case of `C=CCc1ccc(OC(=O)Nc2cccc(Cl)c2)c(OC)c1`, the T/C reads like this: (dose: 100.0 mg/kg/injection, schedule: Q01DX009 (ip), vehicle: carboxymethylcellulose (CMC)) 98 % of control and 102 % of control; (dose: 100.0 mg/kg/injection, schedule: Q04DX002 (ip), vehicle: Klucel (hydroxypropylcellulose) (HPC)) 95 % of control; (dose: 100.0 mg/kg/injection, schedule: Q04DX002 (ip), vehicle: carboxymethylcellulose (CMC)) 102 % of control; under setting [1], 101 % of control; (dose: 200.0 mg/kg/injection, schedule: Q01DX009 (ip), vehicle: carboxymethylcellulose (CMC)) 100 % of control and 92 % of control; (dose: 200.0 mg/kg/injection, schedule: Q04DX002 (ip), vehicle: Klucel (hydroxypropylcellulose) (HPC)) 92 % of control. Besides, the T/C runs as follows: (dose: 200.0 mg/kg/injection, schedule: Q04DX002 (ip), vehicle: carboxymethylcellulose (CMC)) 112 % of control; under setting [2], 95 % of control; (dose: 400.0 mg/kg/injection, schedule: Q01DX009 (ip), vehicle: carboxymethylcellulose (CMC)) 95 % of control and 98 % of control; (dose: 400.0 mg/kg/injection, schedule: Q04DX002 (ip), vehicle: Klucel (hydroxypropylcellulose) (HPC)) 95 % of control; (dose: 400.0 mg/kg/injection, schedule: Q04DX002 (ip), vehicle: carboxymethylcellulose (CMC)) 105 % of control; under setting [3], 100 % of control.

With `COC(=O)Nc1cccc(C)c1C`, the T/C is 103 % of control (dose: 100.0 mg/kg/injection, schedule: Q04DX003 (ip), vehicle: other); 102 % of control (dose: 200.0 mg/kg/injection, schedule: Q04DX003 (ip), vehicle: other); 108 % of control (dose: 400.0 mg/kg/injection, schedule: Q04DX003 (ip), vehicle: other).

For the compound `CCOC(=O)Cn1ccc(=O)[nH]c1=O`, the T/C by setting is: under setting [4], 98 % of control; under setting [5], 96 % of control; under setting [6], 102 % of control.

For `NC(=O)N(CCO)CCO`, the T/C under setting [4] was 110 % of control, the T/C under setting [5] was 96 % of control and the T/C under setting [6] was 104 % of control.

Consider `NC(CCl)=NCC1CCCC1`, for which the T/C runs as follows: (dose: 12.5 mg/kg/injection, schedule: Q04DX002 (ip), vehicle: Klucel (hydroxypropylcellulose) (HPC)) 96 % of control; (dose: 25.0 mg/kg/injection, schedule: Q04DX002 (ip), vehicle: Klucel (hydroxypropylcellulose) (HPC)) 96 % of control; (dose: 50.0 mg/kg/injection, schedule: Q04DX002 (ip), vehicle: Klucel (hydroxypropylcellulose) (HPC)) 96 % of control.

For `O=NN(CCF)C(=O)NC1C2CC3CC(C2)CC1C3` (configuration not stated), the T/C runs as follows: (dose: 12.5 mg/kg/injection, schedule: Q01DX001 (ip), vehicle: other) 114 % of control; (dose: 25.0 mg/kg/injection, schedule: Q01DX001 (ip), vehicle: other) 123 % of control; (dose: 50.0 mg/kg/injection, schedule: Q01DX001 (ip), vehicle: other) 167 % of control.

Regarding `C/C(=C/CO)CC/C=C(\C)CC/C=C(\C)CCC1OC1(C)C` (configuration not stated), the T/C under setting [7] was 92 % of control, the T/C under setting [8] was 96 % of control and the T/C under setting [9] was 102 % of control.

Take `COC(=O)CCCc1c[nH]c2ccccc12`: the T/C by setting is: (dose: 100.0 mg/kg/injection, schedule: Q01DX009 (ip), vehicle: other) 93 % of control; (dose: 200.0 mg/kg/injection, schedule: Q01DX009 (ip), vehicle: other) 100 % of control; (dose: 400.0 mg/kg/injection, schedule: Q01DX009 (ip), vehicle: other) 90 % of control.

Regarding `CC(C)(C#N)NC(N)=O`, the T/C is, setting by setting: under setting [7], 101 % of control; under setting [10], 103 % of control; under setting [4], 107 % of control; under setting [8], 102 % of control; under setting [11], 102 % of control; under setting [5], 104 % of control. Also, the T/C runs as follows: under setting [9], 98 % of control; under setting [12], 97 % of control; under setting [6], 102 % of control.

Consider `COC(=O)C1OC1C(=O)OC` (configuration not stated), for which the T/C (dose: 100.0 mg/kg/injection, schedule: Q01DX009 (ip), vehicle: Klucel (hydroxypropylcellulose) (HPC)) is 91 % of control; the T/C under setting [10] is 101 % of control; the T/C (dose: 200.0 mg/kg/injection, schedule: Q01DX009 (ip), vehicle: Klucel (hydroxypropylcellulose) (HPC)) is 96 % of control; the T/C under setting [11] is 100 % of control; the T/C (dose: 400.0 mg/kg/injection, schedule: Q01DX009 (ip), vehicle: Klucel (hydroxypropylcellulose) (HPC)) was 102 % of control; the T/C under setting [12] is 92 % of control.

Regarding `Cc1ccc(Cl)cc1NC(=O)Nc1cccc2c(O)cccc12`, the T/C is, setting by setting: (dose: 100.0 mg/kg/injection, schedule: Q01DX001 (ip), vehicle: saline with Tween-80) 100 % of control; (dose: 100.0 mg/kg/injection, schedule: Q01DX009 (ip), vehicle: saline with Tween-80) 90 % of control and 92 % of control; (dose: 100.0 mg/kg/injection, schedule: Q04DX002 (ip), vehicle: saline with Tween-80) 94 % of control and 87 % of control; under setting [13], 88 % of control; (dose: 200.0 mg/kg/injection, schedule: Q01DX001 (ip), vehicle: saline with Tween-80) 89 % of control; (dose: 200.0 mg/kg/injection, schedule: Q01DX009 (ip), vehicle: saline with Tween-80) 103 % of control and 90 % of control. Moreover, the T/C by setting is: (dose: 200.0 mg/kg/injection, schedule: Q04DX002 (ip), vehicle: saline with Tween-80) 97 % of control and 89 % of control; under setting [14], 98 % of control; (dose: 400.0 mg/kg/injection, schedule: Q01DX001 (ip), vehicle: saline with Tween-80) 98 % of control; (dose: 400.0 mg/kg/injection, schedule: Q01DX009 (ip), vehicle: saline with Tween-80) 95 % of control; (dose: 400.0 mg/kg/injection, schedule: Q04DX002 (ip), vehicle: saline with Tween-80) 94 % of control and 95 % of control; under setting [15], 101 % of control.

With `CCN1CCCC(SC(=O)C(O)(c2ccccc2)c2ccccc2)C1` (configuration not stated), the T/C (dose: 75.0 mg/kg/injection, schedule: Q01DX001 (ip), vehicle: other) was 94 % of control; the T/C (dose: 150.0 mg/kg/injection, schedule: Q01DX001 (ip), vehicle: other) is 94 % of control; the T/C (dose: 300.0 mg/kg/injection, schedule: Q01DX001 (ip), vehicle: other) is 88 % of control.

Regarding `Cc1ccc(S(=O)(=O)C2CCCC/C2=N\Nc2ccc([N+](=O)[O-])cc2[N+](=O)[O-])cc1` (configuration not stated), the T/C runs as follows: (dose: 100.0 mg/kg/injection, schedule: Q01DX001 (ip), vehicle: other) 105 % of control; (dose: 200.0 mg/kg/injection, schedule: Q01DX001 (ip), vehicle: other) 103 % of control; (dose: 400.0 mg/kg/injection, schedule: Q01DX001 (ip), vehicle: other) 96 % of control.

Take `CCOC(=O)C(=CC(CC)(C(=O)OCC)C(=O)OCC)C(=O)OCC`: the T/C is, setting by setting: under setting [7], 101 % of control; under setting [8], 97 % of control; under setting [9], 95 % of control.

Turning to `FCCBr`, the T/C runs as follows: (dose: 3.12 mg/kg/injection, schedule: Q04DX003 (ip), vehicle: saline) 104 % of control; (dose: 6.25 mg/kg/injection, schedule: Q04DX003 (ip), vehicle: saline) 104 % of control; (dose: 12.5 mg/kg/injection, schedule: Q01DX009 (ip), vehicle: water) 100 % of control; (dose: 12.5 mg/kg/injection, schedule: Q04DX003 (ip), vehicle: saline) 107 % of control; (dose: 25.0 mg/kg/injection, schedule: Q04DX003 (ip), vehicle: saline) 112 % of control; (dose: 25.0 mg/kg/injection, schedule: Q04DX003 (ip), vehicle: water) 97 % of control. Under “dose: 100.0 mg/kg/injection, schedule: Q04DX003 (ip), vehicle: water”, the T/C was 112 % of control.

On to `Cc1ccccc1C1(O)c2ccccc2-c2ccccc21`, for which the T/C was 98 % of control under setting [13], 96 % of control under setting [14] and 96 % of control under setting [15].
